Source: ChEMBL document CHEMBL1124261 (J Med Chem, 1988)
pIC50, pKi: −log10 of the molar value.

How the values were obtained:
L1210 [1] = experiment: Tested for cell-growth inhibition against mouse leukemic L1210 cells; type: functional, cell-based
L1210 [2] = experiment: Range for the survival of mice infected with L1210 leukemia after an intraperitoneal dose of 60 mg/kg for 9 days; Range is 12-19; type: functional, Mus musculus
L1210 [3] = experiment: Mean change in weight of mice infected with L1210 leukemia after 7 days after an intraperitoneal dose of 60 mg/kg; type: functional, Mus musculus
L1210 [4] = experiment: Mean survival of mice infected with L1210 leukemia after an intraperitoneal dose of 40 mg/kg for 9 days; type: functional, Mus musculus
L1210 [5] = experiment: Increase in life span of mice infected with L1210 leukemia after an intraperitoneal dose of 80 mg/kg for 9 days; type: functional; conditions: Mus musculus, L1210, ip, 216 h
L1210 ( R81) = experiment: Tested for cell-growth inhibition against mouse leukemic L1210/R81 cells; type: functional, cell-based
Dihydrofolate reductase = target: T1, Dihydrofolate reductase (Mus musculus, UniProt P00375); experiment: biochemical
T1 sequence (P00375 whole entry): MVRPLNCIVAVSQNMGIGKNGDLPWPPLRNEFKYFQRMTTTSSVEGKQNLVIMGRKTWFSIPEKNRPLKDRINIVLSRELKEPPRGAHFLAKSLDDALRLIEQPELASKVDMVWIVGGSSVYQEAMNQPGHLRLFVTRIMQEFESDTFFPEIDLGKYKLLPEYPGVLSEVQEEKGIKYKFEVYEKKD
Description: Tested for inhibition against purified Dihydrofolate reductase from L1210 murine leukemia cells

CCRF-CEM [6] = experiment: Tested for cell-growth inhibition against human leukemic lymphoblast CEM cells; type: functional, cell-based
[7] = target: T2, Folylpolyglutamate synthase, mitochondrial (Mus musculus) (UniProt P48760); experiment: (§1) Tested for inhibition against purified Folyl-polyglutamate synthase from mouse liver; type: functional; conditions: concentration not given here
T2 sequence (whole entry): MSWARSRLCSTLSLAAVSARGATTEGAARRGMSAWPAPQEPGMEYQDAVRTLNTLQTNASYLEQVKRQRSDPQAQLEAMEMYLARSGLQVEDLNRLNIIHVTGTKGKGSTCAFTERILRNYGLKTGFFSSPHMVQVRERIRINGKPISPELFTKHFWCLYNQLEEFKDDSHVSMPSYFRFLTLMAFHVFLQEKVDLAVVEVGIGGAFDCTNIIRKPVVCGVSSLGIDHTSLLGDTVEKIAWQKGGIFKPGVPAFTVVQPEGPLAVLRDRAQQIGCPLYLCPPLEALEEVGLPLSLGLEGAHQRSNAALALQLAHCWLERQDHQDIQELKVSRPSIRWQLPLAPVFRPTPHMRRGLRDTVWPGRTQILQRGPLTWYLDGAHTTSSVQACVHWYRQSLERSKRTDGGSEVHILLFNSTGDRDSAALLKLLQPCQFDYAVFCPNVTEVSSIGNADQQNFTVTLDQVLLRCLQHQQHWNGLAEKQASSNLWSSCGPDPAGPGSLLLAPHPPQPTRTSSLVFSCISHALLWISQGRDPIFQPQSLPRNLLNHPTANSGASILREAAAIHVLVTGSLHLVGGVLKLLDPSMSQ

L1210 [8] = experiment: Mean change in weight of mice infected with L1210 leukemia after 7 days after an intraperitoneal dose of 80 mg/kg; type: functional, Mus musculus
L1210 [9] = experiment: Mean change in weight of mice infected with L1210 leukemia after 7 days after an intraperitoneal dose of 20 mg/kg; type: functional, Mus musculus
L1210 [10] = experiment: Range for the survival of mice infected with L1210 leukemia after an intraperitoneal dose of 20 mg/kg for 9 days; Range is 13-14; type: functional, Mus musculus
L1210 [11] = experiment: Increase in life span of mice infected with L1210 leukemia after an intraperitoneal dose of 40 mg/kg for 9 days; type: functional; conditions: Mus musculus, L1210, ip, 216 h
L1210 [12] = experiment: Range for the survival of mice infected with L1210 leukemia after an intraperitoneal dose of 40 mg/kg for 9 days; Range is 14-16; type: functional, Mus musculus
L1210 [13] = experiment: Mean change in weight of mice infected with L1210 leukemia after 7 days after an intraperitoneal dose of 40 mg/kg; type: functional, Mus musculus
L1210 [14] = experiment: Mean survival of mice infected with L1210 leukemia after an intraperitoneal dose of 20 mg/kg for 9 days; type: functional, Mus musculus
L1210 [15] = experiment: Range for the survival of mice infected with L1210 leukemia after an intraperitoneal dose of 80 mg/kg for 9 days; Range is 12-18; type: functional, Mus musculus
L1210 [16] = experiment: Increase in life span of mice infected with L1210 leukemia after an intraperitoneal dose of 60 mg/kg for 9 days; type: functional; conditions: Mus musculus, L1210, ip, 216 h
L1210 [17] = experiment: Increase in life span of mice infected with L1210 leukemia after an intraperitoneal dose of 20 mg/kg for 9 days; type: functional; conditions: Mus musculus, L1210, ip, 216 h
CCRF-CEM [18] = experiment: Tested for cell-growth inhibition against human leukemic lymphoblast CEM/MTX cells; type: functional, cell-based
L1210 [19] = experiment: Mean survival of mice infected with L1210 leukemia after an intraperitoneal dose of 80 mg/kg for 9 days; type: functional, Mus musculus
L1210 [20] = experiment: Mean survival of mice infected with L1210 leukemia after an intraperitoneal dose of 60 mg/kg for 9 days; type: functional, Mus musculus
[21] = target: T3, Folylpolyglutamate synthase, mitochondrial (Mus musculus, UniProt P48760); experiment: Inhibitory constant against purified Folyl-polyglutamate synthase obtained from mouse liver
T3 sequence (P48760 whole entry): T2 sequence (whole entry)

[22] = target: T4, Folylpolyglutamate synthase, mitochondrial (Homo sapiens, UniProt Q05932); experiment: Inhibitory constant against purified Folyl-polyglutamate synthase obtained from human
T4 sequence (Q05932 whole entry): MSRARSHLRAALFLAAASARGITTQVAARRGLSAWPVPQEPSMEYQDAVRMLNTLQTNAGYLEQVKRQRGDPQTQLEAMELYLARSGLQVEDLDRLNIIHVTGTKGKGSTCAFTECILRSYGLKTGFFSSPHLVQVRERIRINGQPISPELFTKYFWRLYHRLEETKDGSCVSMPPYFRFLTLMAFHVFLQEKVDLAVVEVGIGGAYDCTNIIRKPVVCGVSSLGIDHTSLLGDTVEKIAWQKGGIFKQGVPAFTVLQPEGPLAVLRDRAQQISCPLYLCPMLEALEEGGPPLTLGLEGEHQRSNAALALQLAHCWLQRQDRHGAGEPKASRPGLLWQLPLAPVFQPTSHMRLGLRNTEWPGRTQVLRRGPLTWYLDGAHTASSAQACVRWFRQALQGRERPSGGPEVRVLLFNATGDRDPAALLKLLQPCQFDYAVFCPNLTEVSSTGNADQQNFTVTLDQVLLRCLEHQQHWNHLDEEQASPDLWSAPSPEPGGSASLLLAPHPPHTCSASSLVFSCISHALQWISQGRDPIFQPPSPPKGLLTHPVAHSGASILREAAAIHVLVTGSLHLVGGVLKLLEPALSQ

Mus musculus = species on record: Mus musculus; experiment: as §1; conditions: concentration not given here
[23] = Inhibitory constant against purified Folyl-polyglutamate synthase from mouse liver; type: functional

## CN(Cc1cnc2nc(N)nc(N)c2n1)c1ccc(C(=O)NC(CCCCCCCC(=O)O)C(=O)O)cc1 (stereo not given)
L1210 [1]
  pIC50: 8.38
L1210 [2]
  Range: 12 days
L1210 [3]
  Weight change: 6%
L1210 [4]
  Survival: 14.6 days
L1210 [5]
  ILS at 80 mg/kg: 73%
L1210 ( R81)
  pIC50: 4.14
Dihydrofolate reductase
  pIC50: 7.49
CCRF-CEM [6]
  pIC50: 7.21
[7]
  inhibition: 43%
L1210 [8]
  Weight change: 3%
L1210 [9]
  Weight change: 7%
L1210 [10]
  Range: 13 days
L1210 [11]
  ILS at 40 mg/kg: 66%
L1210 [12]
  Range: 14 days
L1210 [13]
  Weight change: 6%
L1210 [14]
  Survival: 13.6 days
L1210 [15]
  Range: 12 days
L1210 [16]
  ILS at 60 mg/kg: 74%
L1210 [17]
  ILS at 20 mg/kg: 55%
CCRF-CEM [18]
  pIC50: 6.00
L1210 [19]
  Survival: 15.2 days
L1210 [20]
  Survival: 15.3 days

## CN(Cc1cnc2nc(N)nc(N)c2n1)c1ccc(C(=O)N[C@@H](CCCN)C(=O)O)cc1
[21]
  pKi: 4.70
[22]
  pKi: 5.40

## Nc1nc(N)c2nc(CNc3ccc(C(=O)NC(CCCCCCCCCC(=O)O)C(=O)O)cc3)cnc2n1 (stereo not given)
L1210 [1]
  pIC50: 9.19
L1210 ( R81)
  pIC50: 3.96
Dihydrofolate reductase
  pIC50: 7.09
Mus musculus
  inhibition: 90%
[23]
  pKi: 4.62

## Nc1nc(N)c2nc(CNc3ccc(C(=O)N[C@@H](CCC(=O)O)C(=O)O)cc3)cnc2n1 [AMINOPTERIN]
Dihydrofolate reductase
  pIC50: 7.60
